Patent US9206191B2, “Indazoles for the treatment and prophylaxis of respiratory syncytial virus infection” (Hoffmann-La Roche Inc., priority 2012, dated 2015)

These compounds were tested on RSV Long strain (assay: Viral Cytopathic Effect (CPE) Assay). Settings: human respiratory syncytial virus, 144 h, cell viability after 6 days, Cell Counting kit-8.
Format: cell-based

SMILES | EC50
CS(=O)(=O)c1nn(Cc2nc3cc(Cl)ccc3n2[C@H]2CC[C@H](O)C2)c2cnccc12 (relative stereo) [Example 2-36, trans-3-(5-chloro-2-{[3-(methylsulfonyl)-1H-pyrazolo[3,4-c]pyridin-1-yl]methyl}-1H-benzimidazol-1-yl)cyclopentanol] | 2 nM
C[C@@]1(O)CC[C@H](n2c(Cn3nc(S(C)(=O)=O)c4ccncc43)nc3cc(Cl)ccc32)C1 (relative stereo) [Example 2-43, cis-3-(5-chloro-2-{[3-(methylsulfonyl)-1H-pyrazolo[3,4-c]pyridin-1-yl]methyl}-1H-benzimidazol-1-yl)-1-methylcyclopentanol] | 17.9 nM
CS(=O)(=O)c1nn(Cc2nc3cc(Cl)ccc3n2C2CCS(=O)(=O)C2)c2cnccc12 (stereo in doubt) [Example 2-1, 1-({5-Chloro-1-[(3R)-1,1-dioxidotetrahydrothiophen-3-yl]-1H-benzimidazol-2-yl}methyl)-3-(methylsulfonyl)-1H-pyrazolo[3,4-c]pyridine] | 8.99 nM
CS(=O)(=O)CCCn1c(Cn2cc(S(C)(=O)=O)c3ccccc32)nc2cc(Cl)ccc21 [Example 1-2, 5-Chloro-2-{[3-(methylsulfonyl)-1H-indol-1-yl]methyl}-1-[3-(methylsulfonyl)propyl]-1H-benzimidazole] | 62.5 nM
CS(=O)(=O)CCCn1c(Cn2cc(S(C)(=O)=O)c3cc(F)ccc32)nc2cc(Cl)ccc21 [Example 1-3, 5-Chloro-2-{[5-fluoro-3-(methylsulfonyl)-1H-indol-1-yl]methyl}-1-[3-(methylsulfonyl)propyl]-1H-benzimidazole] | 197 nM
CS(=O)(=O)CCCn1c(Cn2cc(S(C)(=O)=O)c3ccncc32)nc2cc(Cl)ccc21 [Example 1-4, 5-Chloro-1-[3-(methylsulfonyl)propyl]-2-{[3-(methylsulfonyl)-1H-pyrrolo[2,3-c]pyridin-1-yl]methyl}-1H-benzimidazole] | 82 nM
CCS(=O)(=O)c1cn(Cc2nc3cc(Cl)ccc3n2CCCS(C)(=O)=O)c2ccccc12 [Example 1-5, 5-Chloro-2-{[3-(ethylsulfonyl)-1H-indol-1-yl]methyl}-1-[3-(methylsulfonyl)propyl]-1H-benzimidazole] | 65 nM
CC(C)S(=O)(=O)c1cn(Cc2nc3cc(Cl)ccc3n2CCCS(C)(=O)=O)c2ccccc12 [Example 1-6, 5-Chloro-1-[3-(methylsulfonyl)propyl]-2-{[3-(propan-2-ylsulfonyl)-1H-indol-1-yl]methyl}-1H-benzimidazole] | 119 nM
CS(=O)(=O)CCCn1c(Cn2cc(S(=O)(=O)C3CC3)c3ccccc32)nc2cc(Cl)ccc21 [Example 1-7, 5-Chloro-2-{[3-(cyclopropylsulfonyl)-1H-indol-1-yl]methyl}-1-[3-(methylsulfonyl)propyl]-1H-benzimidazole] | 227 nM
CS(=O)(=O)CCCn1c(Cn2nc(S(C)(=O)=O)c3ccccc32)nc2cc(Cl)ccc21 [Example 1-8, 1-({5-Chloro-1-[3-(methylsulfonyl)propyl]-1H-benzimidazol-2-yl}methyl)-3-(methylsulfonyl)-1H-indazole] | 16 nM
CC(C)S(=O)(=O)c1nn(Cc2nc3cc(Cl)ccc3n2CCCS(C)(=O)=O)c2ccccc12 [Example 1-9, 1-({5-Chloro-1-[3-(methylsulfonyl)propyl]-1H-benzimidazol-2-yl}methyl)-3-(propan-2-ylsulfonyl)-1H-indazole] | 74.4 nM
CCS(=O)(=O)c1nn(Cc2nc3cc(Cl)ccc3n2CCCS(C)(=O)=O)c2ccccc12 [Example 1-10, 1-({5-Chloro-1-[3-(methylsulfonyl)propyl]-1H-benzimidazol-2-yl}methyl)-3-(ethylsulfonyl)-1H-indazole] | 37.8 nM
CS(=O)(=O)CCCn1c(Cn2nc(S(C)(=O)=O)c3ccncc32)nc2cc(Cl)ccc21 [Example 1-11, 1-({5-Chloro-1-[3-(methylsulfonyl)propyl]-1H-benzimidazol-2-yl}methyl)-3-(methylsulfonyl)-1H-pyrazolo[3,4-c]pyridine] | 4.6 nM
CS(=O)(=O)CCn1c(Cn2nc(S(C)(=O)=O)c3ccccc32)nc2cc(Cl)ccc21 [Example 1-12, 1-({5-Chloro-1-[2-(methylsulfonyl)ethyl]-1H-benzimidazol-2-yl}methyl)-3-(methylsulfonyl)-1H-indazole] | 26.2 nM
CC(C)S(=O)(=O)c1nn(Cc2nc3cc(Cl)ccc3n2CCS(C)(=O)=O)c2ccccc12 [Example 1-13, 1-({5-Chloro-1-[2-(methylsulfonyl)ethyl]-1H-benzimidazol-2-yl}methyl)-3-(propan-2-ylsulfonyl)-1H-indazole] | 312 nM
CS(=O)(=O)c1nn(Cc2nc3cc(Cl)ccc3n2C2CCS(=O)(=O)C2)c2ccccc12 (stereo not drawn) [Example 2-2, 1-{[5-Chloro-1-(1,1-dioxidotetrahydrothiophen-3-yl)-1H-benzimidazol-2-yl]methyl}-3-(methylsulfonyl)-1H-indazole] | 7.86 nM
CS(=O)(=O)c1nn(Cc2nc3cc(Cl)ccc3n2C2COC2)c2ccccc12 [Example 2-3, 1-{[5-Chloro-1-(oxetan-3-yl)-1H-benzimidazol-2-yl]methyl}-3-(methylsulfonyl)-1H-indazole] | 21.8 nM

SMILES | EC50
CS(=O)(=O)c1nn(Cc2nc3cc(Cl)ccc3n2C2CCNC(=O)C2)c2cnccc12 (stereo not drawn) [Example 2-4, 4-(5-Chloro-2-{[3-(methylsulfonyl)-1H-pyrazolo[3,4-c]pyridin-1-yl]methyl}-1H-benzimidazol-1-yl)piperidin-2-one] | 7.35 nM
CS(=O)(=O)c1nn(Cc2nc3cc(Cl)ccc3n2C2COC2)c2cnccc12 [Example 2-5, 1-{[5-Chloro-1-(oxetan-3-yl)-1H-benzimidazol-2-yl]methyl}-3-(methylsulfonyl)-1H-pyrazolo[3,4-c]pyridine] | 22.4 nM
CS(=O)(=O)c1nn(Cc2nc3cc(Cl)ccc3n2C2CCOCC2)c2ccccc12 [Example 2-6, 1-{[5-Chloro-1-(tetrahydro-2H-pyran-4-yl)-1H-benzimidazol-2-yl]methyl}-3-(methylsulfonyl)-1H-indazole] | 21.8 nM
CS(=O)(=O)c1nn(Cc2nc3cc(Cl)ccc3n2C2CCOCC2)c2cnccc12 [Example 2-7, 1-{[5-Chloro-1-(tetrahydro-2H-pyran-4-yl)-1H-benzimidazol-2-yl]methyl}-3-(methylsulfonyl)-1H-pyrazolo[3,4-c]pyridine] | 7.72 nM
CS(=O)(=O)c1nn(Cc2nc3cc(Cl)ccc3n2C2CCOC2)c2ccccc12 (stereo not drawn) [Example 2-8, 1-{[5-Chloro-1-(tetrahydrofuran-3-yl)-1H-benzimidazol-2-yl]methyl}-3-(methylsulfonyl)-1H-indazole] | 36.1 nM
CS(=O)(=O)c1nn(Cc2nc3cc(Cl)ccc3n2C2CCC(F)(F)C2)c2ccccc12 (stereo not drawn) [Example 2-9, 1-{[5-Chloro-1-(3,3-difluorocyclopentyl)-1H-benzimidazol-2-yl]methyl}-3-(methylsulfonyl)-1H-indazole] | 6.97 nM
CS(=O)(=O)c1nn(Cc2nc3cc(Cl)ccc3n2C2CCC(F)(F)C2)c2cnccc12 (stereo not drawn) [Example 2-10, 1-{[5-Chloro-1-(3,3-difluorocyclopentyl)-1H-benzimidazol-2-yl]methyl}-3-(methylsulfonyl)-1H-pyrazolo[3,4-c]pyridine] | 14.3 nM
CS(=O)(=O)c1nn(Cc2nc3cc(Cl)ccc3n2C2CCC(O)CC2)c2cnccc12 (stereo not drawn) [Example 2-11, 4-(5-Chloro-2-{[3-(methylsulfonyl)-1H-pyrazolo[3,4-c]pyridin-1-yl]methyl}-1H-benzimidazol-1-yl)cyclohexanol] | 8.2 nM
CS(=O)(=O)c1nn(Cc2nc3cc(Cl)ccc3n2C2CCC(O)C2)c2c[n+]([O-])ccc12 (stereo not drawn) [Example 2-12, 3-(5-Chloro-2-{[3-(methylsulfonyl)-6-oxido-1H-pyrazolo[3,4-c]pyridin-1-yl]methyl}-1H-benzimidazol-1-yl)cyclopentanol] | 769 nM
CS(=O)(=O)c1nn(Cc2nc3cc(Cl)ccc3n2C2CCNC2)c2cnccc12 (stereo not drawn) [Example 2-13, 1-{[5-Chloro-1-(pyrrolidin-3-yl)-1H-benzimidazol-2-yl]methyl}-3-(methylsulfonyl)-1H-pyrazolo[3,4-c]pyridine] | 44.2 nM
CS(=O)(=O)c1nn(Cc2nc3cc(Cl)ccc3n2C2CNC2)c2cnccc12 [Example 2-14, 1-{[1-(Azetidin-3-yl)-5-chloro-1H-benzimidazol-2-yl]methyl}-3-(methylsulfonyl)-1H-pyrazolo[3,4-c]pyridine] | 708 nM
CS(=O)(=O)c1nn(Cc2nc3cc(Cl)ccc3n2C2CCNCC2)c2ccccc12 [Example 2-15, 1-{[5-Chloro-1-(piperidin-4-yl)-1H-benzimidazol-2-yl]methyl}-3-(methylsulfonyl)-1H-indazole] | 591 nM
CC(=O)N1CCC(n2c(Cn3nc(S(C)(=O)=O)c4ccncc43)nc3cc(Cl)ccc32)C1 (stereo not drawn) [Example 2-16, 1-[3-(5-Chloro-2-{[3-(methylsulfonyl)-1H-pyrazolo[3,4-c]pyridin-1-yl]methyl}-1H-benzimidazol-1-yl)pyrrolidin-1-yl]ethanone] | 16.4 nM
CS(=O)(=O)c1nn(Cc2nc3cc(Cl)ccc3n2C2CCN(C(=O)CO)C2)c2cnccc12 (stereo not drawn) [Example 2-17, 1-[3-(5-Chloro-2-{[3-(methylsulfonyl)-1H-pyrazolo[3,4-c]pyridin-1-yl]methyl}-1H-benzimidazol-1-yl)pyrrolidin-1-yl]-2-hydroxyethanone] | 10.9 nM
CS(=O)(=O)c1nn(Cc2nc3cc(Cl)ccc3n2C2CCN(C(=O)CN)C2)c2cnccc12 (stereo not drawn) [Example 2-18, 2-Amino-1-[3-(5-chloro-2-{[3-(methylsulfonyl)-1H-pyrazolo[3,4-c]pyridin-1-yl]methyl}-1H-benzimidazol-1-yl)pyrrolidin-1-yl]ethanone] | 36 nM
CS(=O)(=O)c1nn(Cc2nc3cc(Cl)ccc3n2[C@H]2CCN(CC(F)(F)F)C2)c2cnccc12 [Example 2-19, 1-({5-Chloro-1-[(3S)-1-(2,2,2-trifluoroethyl)pyrrolidin-3-yl]-1H-benzimidazol-2-yl}methyl)-3-(methylsulfonyl)-1H-pyrazolo[3,4-c]pyridine] | 1170 nM
